The MRT is the average time that molecules of a dose stay in the body. The IC50 is the concentration at which inhibition is half-maximal.

In brackets after ≈: the same amount, converted by molar mass. Like-named read-outs stand apart in the source and are kept apart here.

Data on six compounds can be found in patent publication US12344616B2, “Factor XIa inhibitors” (Merck Sharp & Dohme LLC, priority 2018, dated 2025).

Series [1] is described as follows: High-throughput (HT) solubility determination. It counts as physicochemical. To be noted: kinetic from dmso stock. As to the method:
The chromatographic system consists of an Agilent 1290 UPLC/DAD system and ChemStation software, both from Agilent Technologies, USA. The separations are carried out on a Supelco Ascentis Express C18, 30 mm×3.0 mm I.D., 2.7 μm HPLC column. The mobile phase consists of Potassium phosphate buffered at pH 7 (mobile phase A) and acetonitrile (mobile phase B). The column oven temperature is set to 30° C. and the UPLC analysis consists of a gradient. The injection volume is 2 μL and the spectrophotometric detection is set to 215 and 238 nm.
A 10 mM stock solution of the compound in DMSO is supplied for analysis. 2.5 μL of stock solution (10 mM) was diluted into 247.5 μL of organic co-solvents (10% MeCN/80% MeOH/10% DMSO, v/v/v) to create a standard solution of 100 μM. To create the solubility solutions, 4.1 μL of 10 mM DMSO stock solution was diluted into […] (PBS) (pH 7) solution. A second 4.1 μL aliquot of 10 mM DMSO stock solution was added to 196 μL of PBS (pH 2) solution. A third 4.1 μL aliquot of 10 mM DMSO stock solution was added to 196 μL of FaSSIF (pH 6.5) solution. Each solubility solution was sealed and shaken for 24 hours at 25° C. Filtered the equilibrated solubility solutions by centrifugation using a filter (0.45 μm, polypropylene). Placed 50 μL each of the 100 μM standard solution and the filtered equilibrated solubility solutions into a 384 well plate, and the plate was subsequently heat sealed.
Analyzed each standard and solubility solution by UPLC/DAD. The solubility value was calculated by the following equation: Solubility=(Peak area of sample/Peak area of standard)(Standard concentration)

Series [2] in a line: Rat screening IV/PO pharmacokinetics. It counts as in vivo. The conditions noted are these: male, plasma, mean residence time, IV/PO procedure. As to the method: Plasma pharmacokinetic parameters for clearance, volume of distribution, half-life, mean residence time (MRT) and oral bioavailability (% F)—were determined in rats from oral administration and IV administration studies. 4 male rats, typically weighing 225-260 gram, were fasted overnight prior to dosing. Compounds were prepared for oral and IV dosing by addition to a vehicle, depending on the dose used. For a typical preparation, 1 mg per mL (IV) or 1.5 mg per mL (oral) of test compound was added to vehicle comprised of 20% dimethyl sulfoxide (DMSO), 60% polyethylene glycol 400 (PEG400) and 20% water. IV formulation was administered to 2 rats via pre-cannulated jugular vein, and oral dosing was administered to 2 rats via oral gavage. Blood was collected by pre-cannulated artery, typically at predose, 2 min, 8 min, 15 min, 30 min, and 1, 2, 4, 6, and 8 hr postdose for IV, and at predose, 15 min, 30 min, and 1, 2, 4, 6, 8 hr for oral dosing. Samples were collected in K2EDTA tubes, stored on ice, and centrifuged. Plasma was transferred to a micro titer plate and stored at −70° C. until analysis. Plasma samples were extracted using protein precipitation and analyzed by liquid chromatography separation followed by mass spec detection (LCMS/MS), using a standard curve for each compound. Plasma pharmacokinetic parameters were calculated for IV and oral dosing data by non-compartmental methods. Oral bioavailability was determined as the ratio of the dose-normalized plasma area under the curve (AUC) following oral dosing vs. IV dosing.

The target of series [3] is Human Norepinephrine Transporter (NET) (Homo sapiens (Human), UniProt P23975). Kind of series: Norepinephrine Transporter functional antagonist uptake assay. It counts as cell-based. The conditions noted are these: [3H]Norepinephrine uptake, MDCK cells expressing human recombinant NET. As to the method: Human Norepinephrine Transporter (NET) Functional Antagonist Uptake Assay was carried out at Panlabs Cerep (assay #302100). Human recombinant norepinephrine transporter expressed in MDCK cells were plated overnight. Test compound and/or vehicle was pre-incubated with cells (2×10E5/ml) in modified Tris-HEPES buffer pH 7.1 for 20 minutes at 25° C. and 25 nM [3H]Norepinephrine was then added for an additional 15 minute incubation period. A lysate was obtained from solubilized cells and counted to determine [3H]Norepinephrine uptake. Reduction of [3H]Norepinephrine uptake by 50 percent or more (≥50%) relative to 10 μM desipramine indicates significant inhibitory activity. Compounds are screened at 10, 3, 1, 0.3, 0.1, 0.03, 0.01 and 0.003 μM. These same concentrations are concurrently applied to a separate group of untreated cells and evaluated for possible compound-induced cytotoxicity only if significant inhibition of uptake is observed. IC50 values were determined by a non-linear, least squares regression analysis using MathIQ™ (IDBusiness Solutions Ltd., UK).

Another series has as its target human Factor XIa (Homo sapiens (Human), UniProt P03951). Kind of series: Factor XIa assay. The series is classed as biochemical. The conditions noted are these: human Factor XIa 0.04 nM, GPR-AFC substrate, 25° C.; read-out: FXIa IC50. As to the method:
The effectiveness of a compound of the present invention as an inhibitor of Coagulation Factor XIa can be determined using a relevant purified serine protease, and an appropriate synthetic substrate. The rate of hydrolysis of the chromogenic or fluorogenic substrate by the relevant serine protease was measured both in the absence and presence of compounds of the present invention. Assays were conducted at room temperature or at 37° C. […] A decrease in the rate of fluorescence change in the presence of inhibitor is indicative of enzyme inhibition. Such methods are known to one skilled in the art. The results of this assay are expressed as the half-maximal inhibitory concentrations (IC50), or the inhibitory constant, Ki.
Compounds were pre-incubated for 30 minutes at 25° C. with human (0.04 nM) Factor XIa in 50 mM HEPES buffer with 150 mM sodium chloride, 5 mM calcium chloride, 0.1% PEG 8000, pH 7.4. Factor XIa enzymatic activity was determined by addition of the substrate glycine-proline-arginine-7-amido-4-trifluoromethylcoumarin (GPR-AFC) and measurement of the fluorescence at 400/505 nm after a 60 minute incubation at 25° C. The % inhibition for each data point was calculated from the data and analyzed using the log (inhibitor) vs. response four parameters equation to determine the half-maximal inhibitory concentrations (IC50). The IC50 were, converted to equilibrium inhibitory constants (Ki) using the Cheng-Prusoff equation.

Where [4] appears, read: FaSSIF pH 6.5, 24 hours at 25° C., read-out: pH 6.5 (FaSSIF) solubility.
Setting [5] is: phosphate buffered saline (PBS) pH 2, aqueous buffer, PBS pH 2, 24 hours at 25° C., read-out: pH 2 solubility.

Sequence of human Factor XIa (P03951 388-625): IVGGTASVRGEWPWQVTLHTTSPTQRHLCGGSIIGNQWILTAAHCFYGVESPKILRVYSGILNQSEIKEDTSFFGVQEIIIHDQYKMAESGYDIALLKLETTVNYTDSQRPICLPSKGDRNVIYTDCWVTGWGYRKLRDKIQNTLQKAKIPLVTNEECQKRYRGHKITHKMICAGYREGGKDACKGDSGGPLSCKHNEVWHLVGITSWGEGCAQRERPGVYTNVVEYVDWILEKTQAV
Sequence of human Factor XIa (P03951 19-387 partner): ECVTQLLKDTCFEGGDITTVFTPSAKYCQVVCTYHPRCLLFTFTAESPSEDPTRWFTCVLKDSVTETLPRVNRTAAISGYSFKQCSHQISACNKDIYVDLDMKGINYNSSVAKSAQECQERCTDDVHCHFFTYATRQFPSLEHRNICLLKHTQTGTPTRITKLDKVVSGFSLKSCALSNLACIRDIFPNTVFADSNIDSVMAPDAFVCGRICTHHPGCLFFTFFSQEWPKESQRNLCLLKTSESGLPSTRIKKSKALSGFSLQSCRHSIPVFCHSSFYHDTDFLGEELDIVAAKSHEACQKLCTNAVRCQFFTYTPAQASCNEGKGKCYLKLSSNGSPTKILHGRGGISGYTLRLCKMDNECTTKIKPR
Sequence of Human Norepinephrine Transporter (NET) (P23975 whole entry): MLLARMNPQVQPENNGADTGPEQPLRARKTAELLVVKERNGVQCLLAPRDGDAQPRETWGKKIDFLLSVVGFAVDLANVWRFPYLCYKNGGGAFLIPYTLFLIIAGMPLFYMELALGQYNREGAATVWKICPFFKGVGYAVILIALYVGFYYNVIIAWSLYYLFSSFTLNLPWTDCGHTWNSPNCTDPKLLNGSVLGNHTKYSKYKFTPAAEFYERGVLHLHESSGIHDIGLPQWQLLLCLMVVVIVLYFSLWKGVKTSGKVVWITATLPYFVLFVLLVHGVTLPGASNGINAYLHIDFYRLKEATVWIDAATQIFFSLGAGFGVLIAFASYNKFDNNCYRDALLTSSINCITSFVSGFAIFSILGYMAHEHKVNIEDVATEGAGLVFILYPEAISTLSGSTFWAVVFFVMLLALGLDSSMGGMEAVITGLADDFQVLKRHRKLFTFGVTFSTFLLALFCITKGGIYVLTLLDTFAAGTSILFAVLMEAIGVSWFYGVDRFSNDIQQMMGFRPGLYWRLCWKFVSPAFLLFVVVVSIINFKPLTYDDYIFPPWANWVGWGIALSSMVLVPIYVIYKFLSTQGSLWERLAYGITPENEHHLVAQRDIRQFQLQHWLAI

With `COC(=O)Nc1ccc2c(c1)NC(=O)C(C)(C)CCC[C@H](c1ccc(-c3c(-n4cc(C(F)(F)F)cn4)ccc(F)c3F)c[n+]1[O-])c1nc-2c(C)[nH]1` [Example 1, (R,Z)-5-(2,3-difluoro-6-(4-(trifluoromethyl)-1H-pyrazol-1-yl)phenyl)-2-(2^4-((methoxycarbonyl)amino)-1^5,5,5-trimethyl-4-oxo-1^1H-3-aza-1(4,2)-imidazola-2 (1,2)-benzenacyclononaphane-9-yl)pyridine 1-oxide], the solubility kinetic at 24 h was 36 µM (≈ 25.5 µg/mL) in series [1] (setting [4]) and over 200 µM in series [1] (setting [5]). This compound also displayed a mean residence time MRT in series [2] of 5.8 h. Moreover, the IC50 was over 10000 nM in series [3] and 1.5 nM on human Factor XIa.
On the same counts, the results for `COC(=O)Nc1ccc2c(c1)NC(=O)C(C)(C)CCC[C@H](c1ccc(-c3cc(Cl)ccc3-n3cc(C(F)F)cn3)c[n+]1[O-])c1nc-2c(C)[nH]1` [Example 4, (R,Z)-5-(5-chloro-2-(4-(difluoromethyl)-1H-pyrazol-1-yl)phenyl)-2-(2^4-((methoxycarbonyl)amino)-1^5,5,5-trimethyl-4-oxo-1^1H-3-aza-1(4,2)-imidazola-2(1,2)-benzenacyclononaphane-9-yl)pyridine 1-oxide] are 44 µM (≈ 30.4 µg/mL), 166 µM (≈ 115 µg/mL), 2.7 h, 6500 nM and 0.9 nM.
As to `COC(=O)Nc1ccc2c(c1)NC(=O)C(C)(C)CCC[C@H](c1ccc(-c3cc(F)ccc3-n3cc(C(F)(F)F)cn3)c[n+]1[O-])c1nc-2c(C)[nH]1` [Example 2, (R.Z)-5-(5-fluoro-2-(4-(trifluoromethyl)-1H-pyrazol-1-yl)phenyl)-2-(2^4-((methoxycarbonyl)amino)-1^5,5,5-trimethyl-4-oxo-1^1H-3-aza-1(4,2)-imidazola-2(1,2)-benzenacyclononaphane-9-yl)pyridine 1-oxide], the solubility kinetic at 24 h in series [1] (setting [4]) was 53 µM (≈ 36.7 µg/mL); in series [1] (setting [5]), 209 µM (≈ 145 µg/mL). Moreover, the MRT in series [2] is 5.7 h. Besides, the IC50 in series [3] is over 10000 nM; at human Factor XIa it was 2.9 nM.
For `COC(=O)Nc1ccc2c(c1)NC(=O)C(C)(C)CCC[C@H](c1ccc(-c3cc(F)ccc3-c3cnn(C(F)(F)F)c3)c[n+]1[O-])c1nc-2c(C)[nH]1` [Example 5, (R,Z)-5-(5-fluoro-2-(1-(trifluoromethyl)-1H-pyrazol-4-yl)phenyl)-2-(2^4-((methoxycarbonyl)amino)-1^5,5,5-trimethyl-4-oxo-1^1H-3-aza-1(4,2)-imidazola-2(1,2)-benzenacyclononaphane-9-yl)pyridine 1-oxide] the same measures were 50 µM (≈ 34.6 µg/mL), 146 µM (≈ 101 µg/mL), 4.5 h, over 10000 nM and 2 nM.
For `COC(=O)Nc1ccc2c(c1)NC(=O)C(C)(C)CCC[C@H](c1ccc(-c3cc(Cl)cnc3OC(F)F)c[n+]1[O-])c1nc-2c(C)[nH]1` [Example 6, (R,Z)-5′-chloro-2′-(difluoromethoxy)-6-(2^4-((methoxycarbonyl)amino)-1^5,5,5-trimethyl-4-oxo-1^1H-3-aza-1(4,2)-imidazola-2(1,2)-benzenacyclononaphane-9-yl)-[3,3′-bipyridine]1-oxide] the same measures were 55 µM (≈ 35.3 µg/mL), 143 µM (≈ 91.7 µg/mL), 5.6 h, 180 nM and 4.4 nM.
For `COC(=O)Nc1ccc2c(c1)NC(=O)C(C)(C)CCC[C@H](c1ccc(-c3cc(Cl)ccc3-n3cc(C(F)(F)F)cn3)c[n+]1[O-])c1nc-2c(C)[nH]1` [Example 3] the same measures were 27 µM (≈ 19.1 µg/mL), 159 µM (≈ 113 µg/mL), 11 h, over 10000 nM and 0.89 nM.
